The values below come from US6525089B1, “Pharmaceutical composition containing decursin” (Binex Co., Ltd., priority 1998, dated 2003).

Data set [1] concerns U-937 cells. The data set is described as follows: Growth inhibition test (trypan blue exclusion). The data set is classed as cell-based, human. As for the experimental part:
U-937 cells, optioned from Korea Cell Line Bank, was cultured in RPMI 1640 medium (Sigma Co., R-6504) supplemented with 10% fetal bovine serum (FBS). The medium was exchanged every 5 day by 70%. U-937 cells were inoculated into a cell culture dish at concentration of 2×10^5 cells/ml. Then decursin added into the dish at concentration of 10^−8˜10^−6M, then the cells were cultured for 4 days. Trypan blue exclusion test was performed to determine the number of live cells using a hemacytometer, and the percentage of cancer-cell growth inhibition was calculated. Then, the differentiation was induced by treating with 10^−2M diluted ethanol solution containing various amount of decursin in the medium.

In data set [2] the test system is SD rats. The data set is described as follows: BUN and creatinine in blood as markers of nephrotoxicity, cisplatin-treated rats. It is filed as in vivo, rat. The protocol:
The detailed test methods were summarized hereinafter. BUN (blood urea nitrogen) and creatinine as a marker of nephrotoxicity in the blood, sGPT as a marker of hepatotoxicity, occult blood in the urine, bilirubin, urobilinogen, ketone, protein, nitrite, glucose, pH and specific gravity were determined as follows. […] BUN value was measured using the BUN measurement kit (Youngdong Pharm. Co. Ltd., Korea) in the following procedure. 0.1 ml of urease was added to 20 ml of buffer solution to obtain enzymatic buffer solution. […] The two test tubes were incubated at 37° C. for 15 minutes. Then 2 ml of color-forming solution was added into each test tube and incubated again at 37° C. for 5 minutes. The absorbance was measured at 570 nm to determine the amount of BUN. (2) Measurement of Creatinine Creatinine value was measured using the creatinine measurement kit (Youngdong, Pharm. Co. Ltd., Korea) in the following procedure. 4 ml of tungsten solution was added in 0.5 ml of serum sample to be tested, and stirred vigorously and then left for 10 minutes. […]. Every 3 ml of the supernatant, reference solution of creatinine and distilled water (for blank test) was put to the separate test tubes, followed by the addition of picrate solution (1 ml each). Then 0.5 ml of 1.4N NaOH was added in each tube and stirred to measure the absorbance at 515 nm exactly after the correct lapse of 15 minutes. A total of 10 male SD rats (body weight: 200 g) were used for this experiment. […] The animals were sacrificed and again weighed four days after treatment. […] Blood samples were also taken and left to sit for 30 minutes to isolate the sera, which was used to determine BUN, creatinine and sGPT values as markers of […].

The test system of data set [3] is normal cells (LLC-PK1). Put plainly: Cytotoxicity test on normal cells. The data set is classed as cell-based. As to conditions: 3 days. The protocol:
To determine the cytotoxicity of decursin on normal cells, they were sub-cultured in a medium-199 containing, 3% fetal bovine serum (FBS), penicillin (100 U/ml) and streptomycin (100 μg/ml) every 3 to 4 day. Then cells were treated with trypsin to prepare a cell suspension. 1 ml of the cell suspension was seeded on 24-well plate at a concentration of 2×10^5 in cells/ml an d attached to the medium for one day. After the supernatant was removed, 1 ml of decursin was added to the cell culture medium at appropriate concentrations and incubated for 3 days to count the cell numbers.

The subject of data set [4] is U-937 cells. The data set is described as follows: Esterase activity test: α-naphthyl acetate esterase. It is filed as cell-based, human. The settings on record: percentage of cells showing activity. The protocol:
To determine α-naphthyl acetate esterase activity in the esterase activity test, the cultured solution of U-937 cells was pelleted by centrifugation at 2000 rpm for 5 minutes, followed by the addition of 100 μl PBS to prepare a cell-concentrated solution. A drop of the cell solution was put on a slide glass and dried for more than 1 hour. Then 40 ml of deionized water was preheated at 37° C. 1 ml of […] solution was mixed with 1 ml of Fast Blue BB base solution and left for 2 minutes. The mixture, being turned to yellow color with thick brown, was added to 40 ml of the preheated deionized water. After the addition of 5 ml of TRIZMAL TM 7.6 buffer solution (Sigma Co. 870-2) and 1 ml of α-naphthyl acetate solution, the resulting solution, which was turned to green color, was poured into a petri dish. The cells on a slide glass were fixed with citrate-acetone-formaldehyde solution (CAF solution) at room temperature. The cells were soaked in the previously prepared solution and incubated at 37° C. for 30 minutes at a dark place. The cells were completely washed with deionized water for more than 2 minutes and counterstained with hematoxylin solution for 2 minutes, washed with tap water and dried in the air. After completely dried, the cells were observed under a microscope to determine the blackish cell numbers.
Thus it was considered that the cells were differentiated into macrophage.like cells by the action of decursin.

Data set [5] relates to cell lines of uterine cancer, leukemia, hepatoma or large intestine cancer. As to conditions: cited from earlier work.
Data set [6] has as its system U-937 cells. Put plainly: NBT reduction test. It is filed as cell-based, human. The settings on record: 1 × 10^−7M, incubated 4 days. As for the experimental part: U-937 cells were plated on a cell culture dish at a concentration of 2×10^5 cells/ml in a medium containing 10^−7M decursin and incubated in a 5% CO2 incubator at 37° C.
In the nitrobluetetrazolium (NBT) reduction test, cell solution (about 1×10^6 cells/ml) was well stirred and pelleted by centrifugation at 2000 rpm for 5 minutes. The pellets were suspended in 0.5 ml of medium, followed by the addition of a mixing solution (0.5 ml) containing 10^−6M formyl-methionine leucine phenylalanine (fMLP) and NBT 1.0 mg/DPBSml (1:9). The mixture was incubated at 37° C. for 30 minutes. The reaction was stopped in ice bath and centrifuged at 2000 rpm for 5 minutes. The supernatant was removed and then 200 μl of DPBS was added. The solution was lightly swayed and checked under a microscope to observe a minimum number of 200 cells. The number of NBT (+) cells was calculated by percentage.
The differentiation was investigated by using the fact that the differentiated leukocyte cells may generate superoxide anion by stimulation. […] The cultured mixture, which was reacted with superoxide, was reduced to form a precipitate. Then NBT was added to the precipitate (Table 7).

Where [7] appears, read: post-treated: decursin 17.4 mg/kg i.p. 1, 24, 48 h after cisplatin 5.8 mg/kg i.p.
The mark [8] stands for this setting: pre-treated: decursin 17.4 mg/kg i.p. 1, 24, 48 h prior to cisplatin 5.8 mg/kg i.p.

Each structure is given as a SMILES string.

The term inhibition denotes the change of the read-out against control, counted positive when it falls. As to `CC(C)=CC(=O)O[C@H]1Cc2cc3ccc(=O)oc3cc2OC1(C)C` [decursin], the “Growth inhibition rate (%)” value in data set [1] (1 × 10^−7M, 4 days (96 hours)) is listed as 42.0 ± 6.4%; in data set [3] (1 × 10^−6M), 0.0 ± 0.0%; in data set [3] (1 × 10^−7M) it was 0.0 ± 0.0%; in data set [3] (1 × 10^−8M), 0.0 ± 0.0%; in data set [3] (5 × 10^−7M), 0.0 ± 0.0%; in data set [3] (5 × 10^−8M), 0.0 ± 0.0%. Also, the inhibition at 1 µM in data set [1] (Homo sapiens, U-937, 96 h, 1 × 10^−6M, 4 days (96 hours), read-out: Growth inhibition rate (%)) was found to be 52 ± 2.8%. Also, the inhibition at 0.1 µM in data set [1] (Homo sapiens, U-937, 96 h, 1 × 10^−7M, 4 days (96 hours), read-out: Growth inhibition rate (%)) was approximately 33%. The inhibition at 0.01 µM in data set [1] (Homo sapiens, U-937, 96 h, 1 × 10^−8M, 4 days (96 hours), read-out: Growth inhibition rate (%)) turned out to be 31 ± 7.8%. Also, the inhibition at 0.5 µM in data set [1] (Homo sapiens, U-937, 96 h, 5 × 10^−7M, 4 days (96 hours), read-out: Growth inhibition rate (%)) came to 48 ± 7.1%. Moreover, the inhibition at 0.05 µM in data set [1] (Homo sapiens, U-937, 96 h, 5 × 10^−8M, 4 days (96 hours), read-out: Growth inhibition rate (%)) turned out to be 35.5 ± 7.4%. Further, the “growth inhibition rate (inhibitory effect)” value in data set [1] (after 96 hours, concentration of 10^−8˜10^−6M) is reported as 30-50%. The BUN is 55.2 ± 2.1 mg/dL in data set [2] (setting [7]) and 17.5 ± 2.8 mg/dL in data set [2] (setting [8]). Further, the Creatinine in data set [2] (setting [7]) turned out to be 2.08 ± 0.52 mg/dL; in data set [2] (setting [8]), 0.74 ± 0.29 mg/dL. The “reduction of nephrotoxicity (creatinine) compared with the control group receiving cisplatin” value in data set [2] (post-treatment group) is “about 40%”. The “α-Naphtylacetate esterase Activity (%)” value came to 83% in data set [4] and 83.3 ± 3.0% in data set [4] (listed as Decursin). In addition, the “concentration at which decursin has toxicity on cancer cell lines” value in data set [5] is recorded as “more than 10 ppm”. Further, the “NBT reduction test: positive cells” value in data set [6] is on record as 43%; in data set [6] (listed as Decursin), 43.1 ± 4.0%.
